Laboratory results as given in patent US20200339625A1, “NOVEL RADIOMETAL-BINDING COMPOUNDS FOR DIAGNOSIS OR TREATMENT OF PROSTATE SPECIFIC MEMBRANE ANTIGEN-EXPRESSING CANCER” (PROVINCIAL HEALTH SERVICES AUTHORITY, priority 2017, published 2020).

Experiments:
[1] = test system: mice bearing PSMA-expressing LNCAP cancer xenografts; experiment: Biodistribution of 68Ga-labeled compounds; type: in vivo
In short: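 NOD-SCID IL2RγKO male mice carried subcutaneous LNCaP xenografts grown to 5-8 mm over 5-6 weeks. Organs and blood were collected at 1 or 3 h after injection of the radiotracer and gamma-counted. Uptake was normalized to injected dose via a standard curve and expressed as %ID/g.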

[2] = test system: mice bearing LNCaP tumor xenografts; experiment: PET/CT imaging of 68Ga-labeled compounds; type: in vivo
In short: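 Male NOD SCID IL2Rγ KO mice bore subcutaneous LNCaP xenografts (1×10^7 cells, tumours 5-8 mm) and received 6-8 MBq tracer via tail vein under 2% isoflurane. At 50 min p.i., a 10-min CT and a 10-min static PET were acquired. For the 3 h time point, scanning began at 170 min p.i. with a 15-min static PET.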

Compound: O=C([O-])CN1CCN(CC(=O)[O-])CCN(CC(=O)NCC2CCC(C(=O)NC(Cc3c4ccccc4cc4ccccc34)C(=O)NCCCCC(NC(=O)NC(CCC(=O)O)C(=O)O)C(=O)O)CC2)CCN(CC(=O)[O-])CC1.[68Ga+3] (stereo not shown) [^68Ga-HTK03041]
- Adrenal glands uptake ([1]; 1 h post-injection): 8.90 ± 2.56 % ID/g
- Blood uptake ([1]; 1 h post-injection): 1.43 ± 0.30 % ID/g
- Bone uptake ([1]; 1 h post-injection): 1.29 ± 0.45 % ID/g
- Brain uptake ([1]; 1 h post-injection): 0.10 ± 0.05 % ID/g
- Fat uptake ([1]; 1 h post-injection): 2.06 ± 0.59 % ID/g
- Heart uptake ([1]; 1 h post-injection): 1.82 ± 0.21 % ID/g
- Intestine uptake ([1]; 1 h post-injection): 1.14 ± 0.18 % ID/g
- Kidneys uptake ([1]; 1 h post-injection): 170 ± 26.4 % ID/g
- Lacrimal uptake ([1]; 1 h post-injection): 2.44 ± 1.79 % ID/g
- Liver uptake ([1]; 1 h post-injection): 1.38 ± 0.25 % ID/g
- Lungs uptake ([1]; 1 h post-injection): 4.32 ± 0.62 % ID/g
- Muscle uptake ([1]; 1 h post-injection): 0.75 ± 0.09 % ID/g
- Pancreas uptake ([1]; 1 h post-injection): 1.47 ± 0.16 % ID/g
- Salivary uptake ([1]; 1 h post-injection): 4.99 ± 0.88 % ID/g
- Seminal uptake ([1]; 1 h post-injection): 1.03 ± 0.27 % ID/g
- Spleen uptake ([1]; 1 h post-injection): 8.95 ± 3.22 % ID/g
- Stomach uptake ([1]; 1 h post-injection): 0.41 ± 0.11 % ID/g
- Tail uptake ([1]; 1 h post-injection): 1.36 ± 0.45 % ID/g
- Testes uptake ([1]; 1 h post-injection): 1.34 ± 0.22 % ID/g
- Thyroid uptake ([1]; 1 h post-injection): 2.48 ± 0.44 % ID/g
- Tumor uptake ([1]; 1 h post-injection): 23.1 ± 6.11 % ID/g
- Tumor:Blood ratio ([1]; 1 h post-injection): 17.3 ± 7.24
- Tumor:Muscle ratio ([1]; 1 h post-injection): 31.6 ± 12.1
- Tumor:kidney ratio ([1]; 1 h post-injection): 0.14 ± 0.04
- Urine uptake ([1]; 1 h post-injection): 173 ± 93.01 % ID/g
- Adrenal glands uptake ([1]; 3 h post-injection): 4.04 ± 1.20 % ID/g
- Blood uptake ([1]; 3 h post-injection): 0.83 ± 0.27 % ID/g
- Bone uptake ([1]; 3 h post-injection): 0.98 ± 0.40 % ID/g
- Brain uptake ([1]; 3 h post-injection): 0.06 ± 0.02 % ID/g
- Fat uptake ([1]; 3 h post-injection): 1.06 ± 0.20 % ID/g
- Heart uptake ([1]; 3 h post-injection): 0.93 ± 0.17 % ID/g
- Intestine uptake ([1]; 3 h post-injection): 0.67 ± 0.09 % ID/g
- Kidneys uptake ([1]; 3 h post-injection): 121 ± 37.6 % ID/g
- Lacrimal uptake ([1]; 3 h post-injection): 2.82 ± 3.84 % ID/g
- Liver uptake ([1]; 3 h post-injection): 0.82 ± 0.15 % ID/g
- Lungs uptake ([1]; 3 h post-injection): 2.14 ± 0.39 % ID/g
- Muscle uptake ([1]; 3 h post-injection): 0.40 ± 0.06 % ID/g
- Pancreas uptake ([1]; 3 h post-injection): 0.71 ± 0.12 % ID/g
- Salivary uptake ([1]; 3 h post-injection): 2.11 ± 0.57 % ID/g
- Seminal uptake ([1]; 3 h post-injection): 4.56 ± 9.00 % ID/g
- Spleen uptake ([1]; 3 h post-injection): 4.19 ± 1.58 % ID/g
- Stomach uptake ([1]; 3 h post-injection): 0.26 ± 0.06 % ID/g
- Tail uptake ([1]; 3 h post-injection): 0.86 ± 0.73 % ID/g
- Testes uptake ([1]; 3 h post-injection): 0.89 ± 0.12 % ID/g
- Thyroid uptake ([1]; 3 h post-injection): 1.19 ± 0.23 % ID/g
- Tumor uptake ([1]; 3 h post-injection): 28.2 ± 9.17 % ID/g
- Tumor:Blood ratio ([1]; 3 h post-injection): 36.6 ± 15.4
- Tumor:Muscle ratio ([1]; 3 h post-injection): 73.8 ± 30.9
- Tumor:kidney ratio ([1]; 3 h post-injection): 0.26 ± 0.13
- Urine uptake ([1]; 3 h post-injection): 171 ± 93.3 % ID/g
- change of tumor uptake from 1 h to 3 h post-injection ([2]; PET/CT images): increases from 1 h to 3 h post-injection
- excretion pathway ([2]; PET/CT images): excreted mainly via the renal pathway
- tumor uptake (qualitative comparison) ([2]; PET/CT images, compounds of FIG. 13): highest tumor uptake

Compound: Cc1ccc(CCCC(=O)NCC(=O)N[C@@H](CCCCNC(=O)CN2CCN(CC(=O)[O-])CCN(CC(=O)[O-])CCN(CC(=O)[O-])CC2)C(=O)NC[C@H]2CC[C@H](C(=O)N[C@@H](Cc3ccc4ccccc4c3)C(=O)NCCCC[C@H](NC(=O)N[C@@H](CCC(=O)O)C(=O)O)C(=O)O)CC2)cc1.[68Ga+3] [^68Ga-HTK03090]
- Adrenal glands uptake ([1]; 1 h post-injection): 3.99 ± 1.94 % ID/g
- Blood uptake ([1]; 1 h post-injection): 16.8 ± 2.14 % ID/g
- Bone uptake ([1]; 1 h post-injection): 0.71 ± 0.10 % ID/g
- Brain uptake ([1]; 1 h post-injection): 0.20 ± 0.02 % ID/g
- Fat uptake ([1]; 1 h post-injection): 1.87 ± 0.80 % ID/g
- Heart uptake ([1]; 1 h post-injection): 3.95 ± 0.72 % ID/g
- Intestine uptake ([1]; 1 h post-injection): 1.14 ± 0.13 % ID/g
- Kidneys uptake ([1]; 1 h post-injection): 24.3 ± 3.03 % ID/g
- Lacrimal uptake ([1]; 1 h post-injection): 0.16 ± 0.07 % ID/g
- Liver uptake ([1]; 1 h post-injection): 3.37 ± 0.85 % ID/g
- Lungs uptake ([1]; 1 h post-injection): 7.68 ± 1.33 % ID/g
- Muscle uptake ([1]; 1 h post-injection): 1.23 ± 0.15 % ID/g
- Pancreas uptake ([1]; 1 h post-injection): 1.36 ± 0.22 % ID/g
- Salivary uptake ([1]; 1 h post-injection): 2.48 ± 0.36 % ID/g
- Seminal uptake ([1]; 1 h post-injection): 0.90 ± 0.15 % ID/g
- Spleen uptake ([1]; 1 h post-injection): 2.00 ± 0.34 % ID/g
- Stomach uptake ([1]; 1 h post-injection): 0.59 ± 0.13 % ID/g
- Tail uptake ([1]; 1 h post-injection): 3.77 ± 0.91 % ID/g
- Testes uptake ([1]; 1 h post-injection): 1.95 ± 0.20 % ID/g
- Thyroid uptake ([1]; 1 h post-injection): 3.36 ± 0.24 % ID/g
- Tumor uptake ([1]; 1 h post-injection): 8.54 ± 0.74 % ID/g
- Tumor:Blood ratio ([1]; 1 h post-injection): 0.52 ± 0.10
- Tumor:Muscle ratio ([1]; 1 h post-injection): 7.09 ± 1.37
- Urine uptake ([1]; 1 h post-injection): 21.5 ± 9.93 % ID/g
- Adrenal glands uptake ([1]; 3 h post-injection): 2.89 ± 0.28 % ID/g
- Blood uptake ([1]; 3 h post-injection): 13.6 ± 1.23 % ID/g
- Bone uptake ([1]; 3 h post-injection): 0.64 ± 0.03 % ID/g
- Brain uptake ([1]; 3 h post-injection): 0.16 ± 0.02 % ID/g
- Fat uptake ([1]; 3 h post-injection): 1.30 ± 0.13 % ID/g
- Heart uptake ([1]; 3 h post-injection): 3.00 ± 0.41 % ID/g
- Intestine uptake ([1]; 3 h post-injection): 0.98 ± 0.16 % ID/g
- Kidneys uptake ([1]; 3 h post-injection): 30.0 ± 8.66 % ID/g
- Lacrimal uptake ([1]; 3 h post-injection): 0.10 ± 0.13 % ID/g
- Liver uptake ([1]; 3 h post-injection): 2.73 ± 0.90 % ID/g
- Lungs uptake ([1]; 3 h post-injection): 6.00 ± 0.88 % ID/g
- Muscle uptake ([1]; 3 h post-injection): 1.04 ± 0.12 % ID/g
- Pancreas uptake ([1]; 3 h post-injection): 1.27 ± 0.13 % ID/g
- Salivary uptake ([1]; 3 h post-injection): 2.15 ± 0.37 % ID/g
- Seminal uptake ([1]; 3 h post-injection): 0.89 ± 0.05 % ID/g
- Spleen uptake ([1]; 3 h post-injection): 1.93 ± 0.55 % ID/g
- Stomach uptake ([1]; 3 h post-injection): 0.63 ± 0.12 % ID/g
- Tail uptake ([1]; 3 h post-injection): 3.75 ± 1.53 % ID/g
- Testes uptake ([1]; 3 h post-injection): 2.08 ± 0.42 % ID/g
- Thyroid uptake ([1]; 3 h post-injection): 2.76 ± 0.21 % ID/g
- Tumor uptake ([1]; 3 h post-injection): 16.9 ± 3.16 % ID/g
- Tumor:Blood ratio ([1]; 3 h post-injection): 1.25 ± 0.32
- Tumor:Muscle ratio ([1]; 3 h post-injection): 16.6 ± 4.11
- Urine uptake ([1]; 3 h post-injection): 53.9 ± 14.6 % ID/g
- change of tumor uptake from 1 h to 3 h post-injection ([2]; PET/CT images): increases over time
- blood retention (qualitative) ([2]; PET/CT images at 1 h and 3 h post-injection, comparison within the figure): significantly higher blood retention
